These results are taken from patent US5183821A, “Method for treating leukemias using N-(2-dimethylaminoethyl)-3-amino-1,8-naphthalimide for treating leukemias and solid tumors” (priority 1991, dated 1993).

For the assay, the system named is Colon 38. Kind of assay: Experiment 12 (first): Colon 38 s.c., saline with Tween-80, male. It is filed as in vivo, Mouse B6 D2 F1 (BDF1). The text has this:
Host: Mouse B6 D2 F1 (BDF1)
Inoculum Site: Subcutaneous
Vehicle: Saline with Tween-80
Treatment schedule (relative to tumor inoculation day) days 2 and 9
Day of evaluation (relative to tumor inoculation day): 20
Parameter: Median tumor weight (MTW) estimated from tumor diameter
NCI minimal activity criteria: Percent T/C≤42
Percent T/C: Ratio of test (T) evaluation to control (C) evaluation expressed as a percentage

`CN(C)CCN1C(=O)c2cccc3cc(N)cc(c23)C1=O` [Example 9, 1H-Benz[de]isoquinoline-1,3(2H)-dione, 5-amino-2-[2-(dimethylamino)ethyl]]: the “Median tumor weight (MTW)” value (2.00 mg/kg i.p.) stood at 685; the “Median tumor weight (MTW)” value (4.00 mg/kg i.p.) came to 775; the “Median tumor weight (MTW)” value (8.00 mg/kg i.p.) turned out to be 861; the “Median tumor weight (MTW)” value (16.00 mg/kg i.p.) was found to be 733; the “Median tumor weight (MTW)” value (32.00 mg/kg i.p.) was 270; the “Median tumor weight (MTW)” value (64.00 mg/kg i.p.) turned out to be 252. Also, the “Percent T/C” value (2.00 mg/kg i.p.) turned out to be 72%; the “Percent T/C” value (4.00 mg/kg i.p.) came out at 81%; the “Percent T/C” value (8.00 mg/kg i.p.) came to 90%; the “Percent T/C” value (16.00 mg/kg i.p.) was 77%; the “Percent T/C” value (32.00 mg/kg i.p.) came to 28%; the “Percent T/C” value (64.00 mg/kg i.p.) is given as 26%.
